Results on four compounds are retold here after publication PMC11877502, “Cytotoxic Stilbenoids, Hetero- and Homodimers of Homoisoflavonoids from Prospero autumnale” (Journal of Natural Products, 2025).

Test [1] has as its system PC3. In words: Annexin V/propidium iodide staining. The format is cell-based, human. The following applies: 48 h at IC50 concentration, flow cytometry. Here is the method: (§1) Apoptosis, necrosis, and viability were analyzed by Annexin V-FITC and […] (PI) staining. For this purpose, cells were seeded at 5 × 10^5 cells per 60 mm dish and incubated overnight to allow attachment. Then, cells were treated with the selected compounds (1, 2, 4, and 10) for 48 h at respective IC50 concentrations. For flow cytometric analysis, cells were detached with Trypsin-EDTA solution (Thermo Fisher Scientific #25200056), washed with Dulbecco’s phosphate buffered saline (DPBS, Thermo Fisher Scientific #14190094) solution, and suspended in 1 mL of ice-cold Annexin V Binding Buffer (BioLegend #422201). Cells were then stained with 1 μL of Annexin V-FITC (Biovision #1001) and 1 μL PI (Thermo Fisher Scientific # P1304MP, diluted to 250 μg/mL in DPBS) by incubating cells on ice for 15 min in the dark. Cells were then immediately analyzed on a Beckman Coulter DxFLEX flow cytometry system. Each analysis was performed in triplicate, and 25 × 10^3 events were counted for each tube. Evaluations were done with CytEXPERT software.

Test [2] has as its system DU145. In words: Annexin V/propidium iodide staining. The format is cell-based, human. The following applies: 48 h at IC50 concentration, flow cytometry. Here is the method: as §1
Test [3] relates to PC3. In words: DNA content (cell cycle) analysis. The format is cell-based, human. The following applies: 48 h, DNA content by flow cytometry. How it is done: (§2) To investigate cell cycle progression, cells were seeded as 5 × 10^5 cells per 60 mm dish and incubated overnight for attachment. After incubating with the selected compounds for 48 h, cells were detached with Trypsin-EDTA, washed once with DPBS, and fixed with ice-cold 70% EtOH by storing tubes at 4 °C for an hour. Then, EtOH was discarded by centrifuging cells, and the pellet was suspended in 500 μL cell cycle kit reagent (Beckman Coulter #C03551). Tubes were incubated at room temperature under the dark for 30 min. The experiment was done on triplicate, and 5 × 10^4 cells per test were acquired at a medium flow rate with the Beckman Coulter DxFLEX flow cytometry system. Analyses were performed with ModFit LT version 4.0.

The subject of test [4] is LoVo. Put plainly: DNA content (cell cycle) analysis. Format: cell-based, human. The following applies: 48 h, DNA content by flow cytometry. How it is done: as §2
On the technique in general: In flow cytometry, cells or beads pass a laser one at a time.

The test system of test [5] is LoVo. Put plainly: Annexin V/propidium iodide staining. The format is cell-based, human. The following applies: 48 h at IC50 concentration, flow cytometry. How it is done: (§3) Apoptosis, necrosis, and viability were analyzed by Annexin V-FITC and […] (PI) staining. For this purpose, cells were seeded at 5 × 10^5 cells per 60 mm dish and incubated overnight to allow attachment. […] Cells were then immediately analyzed on a Beckman Coulter DxFLEX flow cytometry system. Each analysis was performed in triplicate, and 25 × 10^3 events were counted for each tube. Evaluations were done with CytEXPERT software.

Test [6] deals with L929 nontumor mouse fibroblast cell line. Put plainly: MTS cytotoxicity assay, nontumor cell line. Format: cell-based. The following applies: 48 h, triplicate, read-out: IC50 ± SEM L929. Here is the method: (§4) Stock solutions of extracts and compounds were prepared by dissolving in DMSO (Sigma-Aldrich, no. D2650) at the concentrations of 100 mg/mL and 100 mM for extracts and compounds, respectively. […] Untreated cells were used as a control, while plain culture medium was used as a blank. Viability was determined with MTS Assay (Abcam #ab197010) according to the manufacturer’s instructions. Absorbance at 490 nm was measured with a spectrophotometer (Epoch, BioTek Instruments). Relative viability ratios were calculated with the equation given below, and IC50 values were determined in GraphPad Prism (version 8.0). [drawing 2]
In general terms: Tetrazolium dyes change colour on reduction, which living cells bring about.

Test [7] concerns PC3. In words: MTS cytotoxicity assay. Format: cell-based. The note with it: Homo sapiens, PC-3, 48 h, triplicate, read-out: IC50 ± SEM PC3. How it is done:
as §4

Test [8] concerns DU145. Put plainly: MTS cytotoxicity assay. The format is cell-based. The note with it: Homo sapiens, DU-145, 48 h, triplicate, read-out: IC50 ± SEM DU145. How it is done:
as §4

For test [9], the system named is HEP3B. Put plainly: MTS cytotoxicity assay. The note with it: Homo sapiens, 48 h, triplicate, read-out: IC50 ± SEM HEP3B. Format: cell-based. Here is the method: as §4
A further test has as its system HCT116. Put plainly: MTS cytotoxicity assay. The note with it: Homo sapiens, HCT-116, 48 h, triplicate, read-out: IC50 ± SEM HCT116. The format is cell-based. Here is the method: as §4
Another test has as its system MCF7. In words: MTS cytotoxicity assay. The format is cell-based. The following applies: Homo sapiens, 48 h, triplicate, read-out: IC50 ± SEM MCF7. Here is the method: as §4
Test [10] deals with MDA-MB-231. In words: MTS cytotoxicity assay. The format is cell-based. The following applies: Homo sapiens, 48 h, triplicate, read-out: IC50 ± SEM MDA-MB-231. Here is the method:
as §4

Test [11] concerns LoVo. In words: MTS cytotoxicity assay. The format is cell-based. The following applies: Homo sapiens, 48 h, triplicate, read-out: IC50 ± SEM LoVo. Here is the method: as §4
The test system of another test is HEPG2. In words: MTS cytotoxicity assay. Format: cell-based. The note with it: Homo sapiens, 48 h, triplicate, read-out: IC50 ± SEM HEPG2. How it is done: as §4
Test [12] has as its system human cancer cell lines (HCT116, LoVo, DU145, PC3, HEP3B, HEPG2, MCF7, MDA-MB-231). Put plainly: MTS cytotoxicity assay, panel statements. The format is cell-based. The note with it: 48 h, span over compounds and cell lines, read-out: IC50 toward one or more cancer cell lines. Here is the method:
as §4

Test [13] relates to MDA-MB-231. Put plainly: DNA content (cell cycle) analysis. Format: cell-based, human. The following applies: 48 h, DNA content by flow cytometry. How it is done:
as §2

In test [14] the test system is MDA-MB-231. Put plainly: Annexin V/propidium iodide staining. Format: cell-based, human. The note with it: 48 h at IC50 concentration, flow cytometry. How it is done:
as §3

For test [15], the system named is HEP3B. In words: Annexin V/propidium iodide staining. Format: cell-based, human. The note with it: 48 h at IC50 concentration, flow cytometry. How it is done:
as §1

The subject of test [16] is HEP3B. In words: DNA content (cell cycle) analysis. The format is cell-based, human. The note with it: 48 h, DNA content by flow cytometry. How it is done: as §2

Usually IC50 stands for the concentration that gives 50% inhibition. For the compound `COc1cc(/C=C/c2ccc(O)cc2)cc(O)c1C` [Compound 1, 3,4′-dihydroxy-4-methyl-5-methoxystilbene], the “apoptosis/necrosis vs control, PC3” value in the test with PC3 [1] is “promoting apoptosis and necrosis”. Also, the “apoptosis/necrosis vs control, DU145” value with DU145 [2] is “promoting apoptosis and necrosis”. In addition, the “cell cycle effect, PC3” value in the test on PC3 [3] is listed as “S phase arrest”. Besides, the “cell cycle effect, LoVo” value with LoVo [4] is listed as “S phase arrest”. Besides, the “apoptosis/necrosis vs control, LoVo” value in the test with LoVo [5] is “apoptosis along with necrosis”. For the same compound, the IC50 stood at 33.7 ± 3.9 µM in test [6]; 21.3 ± 2.1 µM in the test with PC3 [7]; 29.7 ± 4.4 µM in the test on DU145 [8]; 59.8 ± 4.2 µM with HEP3B [9]; 54.6 ± 5.5 µM in the test with HCT116; 53.5 ± 9.1 µM in the test with MCF7. The IC50 with MDA-MB-231 [10] is 79.6 ± 5.6 µM; in the test with LoVo [11], 10.6 ± 0.5 µM; in the test on HEPG2, 37.6 ± 5.3 µM; in [12], 8.2 to 37.6 µM.
Turning to `COc1cc(O)cc(/C=C/c2ccc(O)cc2)c1` [Compound 2, pinostilbene], in the test on MDA-MB-231 [13], the “cell cycle effect, MDA-MB-231” value is on record as “S phase arrest”. The “cell cycle effect, LoVo” value with LoVo [4] is “S phase arrest”. Besides, the “apoptosis/necrosis vs control, MDA-MB-231” value in the test with MDA-MB-231 [14] is on record as “more efficient in inducing apoptosis compared to 10”. The “apoptosis/necrosis vs control, LoVo” value in the test on LoVo [5] is “apoptosis along with necrosis”. Further, the 50% inhibitory concentration (IC50) in [6] is 13.4 ± 1.7 µM; with PC3 [7], 88.7 ± 10.9 µM; in the test on DU145 [8], > 100 µM; with HEP3B [9], 93.5 ± 8.9 µM; in the test with HCT116, 71.3 ± 12.6 µM; with MCF7, 95.7 ± 15 µM. Besides, the IC50 was 23.3 ± 1.4 µM in the test on MDA-MB-231 [10], 8.2 ± 0.4 µM in the test on LoVo [11], 51.8 ± 10 µM in the test with HEPG2 and 8.2 to 37.6 µM in test [12].
As to `COc1cc(/C=C/c2cc(O)c(C)c(O)c2)ccc1O` [Compound 3, scillabene A], the half-inhibitory concentration (IC50) was > 100 µM in test [6]; > 100 µM in the test with PC3 [7]; > 100 µM in the test on DU145 [8]; 82.7 ± 3.9 µM in the test on HEP3B [9]; > 100 µM in the test on HCT116; > 100 µM in the test on MCF7. Further, the half-maximal inhibitory concentration (IC50) was > 100 µM in the test on MDA-MB-231 [10], 83.4 ± 3.9 µM in the test with LoVo [11] and > 100 µM in the test on HEPG2.
Consider `O=C1/C(=C/c2ccc(O)cc2)COc2cc(O)cc(O)c21` [Compound 4, (E)-4′-O-demethyleucomin], for which the “apoptosis/necrosis vs control, HEP3B” value with HEP3B [15] was “significantly increased early apoptosis along with necrosis”. Moreover, the “cell cycle effect, HEP3B” value in the test with HEP3B [16] was “G2/M phase arrest”. Also, the IC50 in test [6] is > 100 µM; with PC3 [7], 88.1 ± 8.6 µM; with DU145 [8], > 100 µM; in the test with HEP3B [9] it was 33.7 ± 3 µM; with HCT116, 45.8 ± 8.4 µM; in the test with MCF7, 95.3 ± 4.7 µM. Also, the concentration for half-maximal inhibition (IC50) is 77.5 ± 3.9 µM in the test on MDA-MB-231 [10], 40.4 ± 2.9 µM with LoVo [11], > 100 µM with HEPG2 and 8.2 to 37.6 µM in test [12].
